In the supplement of paper PMC10307832:

Columns and labels:
Test in all cases: relative viability (nuclei count vs DMSO), 5 days (fraction); higher = more cells survive
CX-5461 + Olaparib = compound: Cc1cnc(CNC(=O)c2c(=O)c3ccc(N4CCCN(C)CC4)nc3n3c2sc2ccccc23)cn1 [CX-5461] + O=C(c1cc(Cc2n[nH]c(=O)c3ccccc23)ccc1F)N1CCN(C(=O)C2CC2)CC1 [Olaparib] (partner 8 µM)
Procedure, shortened: (§1)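 For relative viability, nuclei counts in treated wells were divided by those in vehicle wells. Lung cancer cell lines had been pin-tool dosed in 1536-well plates the day after seeding and cultured for 5 days, then fixed and stained in one step (final 0.05% Triton X-100, 1% formaldehyde, 1 ug/ml Hoechst) and imaged at 4×. Doses were one drug alone or a fixed anchor-drug dose plus five library-drug doses (not always all listed) in √10 steps, and values are duplicate-plate medians.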

CX-5461 + AZD7762 = compound: Cc1cnc(CNC(=O)c2c(=O)c3ccc(N4CCCN(C)CC4)nc3n3c2sc2ccccc23)cn1 [CX-5461] + NC(=O)Nc1cc(-c2cccc(F)c2)sc1C(=O)N[C@H]1CCCNC1 [AZD7762] (partner 0.2 µM)
Procedure, shortened: as §1

IMD-0354 + Foretinib = compound: O=C(Nc1cc(C(F)(F)F)cc(C(F)(F)F)c1)c1cc(Cl)ccc1O [IMD-0354] + COc1cc2c(Oc3ccc(NC(=O)C4(C(=O)Nc5ccc(F)cc5)CC4)cc3F)ccnc2cc1OCCCN1CCOCC1 [Foretinib] (partner 0.25 µM)
Procedure, shortened: as §1

IMD-0354 + Crizotinib = compound: O=C(Nc1cc(C(F)(F)F)cc(C(F)(F)F)c1)c1cc(Cl)ccc1O [IMD-0354] + C[C@@H](Oc1cc(-c2cnn(C3CCNCC3)c2)cnc1N)c1c(Cl)ccc(F)c1Cl [Crizotinib] (partner 1 µM)
Procedure, shortened: as §1

| Cell Line | relative viability (CX-5461 + Olaparib; first compound 0.01 µM) | relative viability (CX-5461 + Olaparib; first compound 0.03162 µM) | relative viability (CX-5461 + Olaparib; first compound 0.1 µM) | relative viability (CX-5461 + Olaparib; first compound 0.3162 µM) | relative viability (CX-5461 + Olaparib; first compound 1 µM) | relative viability (CX-5461 + AZD7762; first compound 0.01 µM) | relative viability (CX-5461 + AZD7762; first compound 0.03162 µM) | relative viability (CX-5461 + AZD7762; first compound 0.1 µM) | relative viability (CX-5461 + AZD7762; first compound 0.3162 µM) | relative viability (CX-5461 + AZD7762; first compound 1 µM) | relative viability (IMD-0354 + Foretinib; first compound 0.04 µM) | relative viability (IMD-0354 + Foretinib; first compound 0.1265 µM) | relative viability (IMD-0354 + Foretinib; first compound 0.4 µM) | relative viability (IMD-0354 + Foretinib; first compound 1.265 µM) | relative viability (IMD-0354 + Foretinib; first compound 4 µM) | relative viability (IMD-0354 + Crizotinib; first compound 0.04 µM) | relative viability (IMD-0354 + Crizotinib; first compound 0.1265 µM) | relative viability (IMD-0354 + Crizotinib; first compound 0.4 µM) | relative viability (IMD-0354 + Crizotinib; first compound 1.265 µM) | relative viability (IMD-0354 + Crizotinib; first compound 4 µM) |
| --- | --- | --- | --- | --- | --- | --- | --- | --- | --- | --- | --- | --- | --- | --- | --- | --- | --- | --- | --- | --- |
| 201T | 0.888 | 0.841 | 0.856 | 0.84 | 0.793 | 0.6 | 0.682 | 0.621 | 0.543 | 0.491 | 1.18 | 1.18 | 1.05 | 0.235 | 0.178 | 1.09 | 1.02 | 0.815 | 1 | 0.389 |
| A549 | 0.487 | 0.418 | 0.31 | 0.0579 | 0.0629 |  |  |  |  |  | 0.986 | 1.02 | 0.481 | 0.0713 | 0.0502 | 0.834 | 0.764 | 0.265 | 0.0905 | 0.121 |
| A-427 | 0.802 | 0.772 | 0.626 | 0.247 | 0.465 | 0.807 | 0.637 | 0.612 | 0.627 | 0.408 | 0.972 | 1.08 | 0.594 | 0.655 | 0.168 | 0.877 | 0.793 | 0.519 | 0.185 | 0.139 |
| ABC-1 | 0.798 |  | 1.04 | 0.594 | 0.517 | 0.753 | 0.777 | 0.845 |  | 0.608 | 0.876 | 1.12 | 0.854 | 0.37 | 0.29 | 1.42 | 1.22 | 0.765 | 0.221 | 0.269 |
| BEN | 1.12 | 1.06 | 1.2 | 1.02 | 0.737 | 0.737 | 0.615 | 0.555 | 0.745 | 0.531 | 0.739 | 0.731 | 0.448 | 0.193 | 0.196 | 0.856 | 0.8 | 0.463 | 0.366 | 0.299 |
| CAL-12T | 0.732 | 0.747 | 0.699 | 0.634 | 0.508 | 0.715 | 0.658 | 0.601 | 0.698 | 0.449 | 1.25 | 0.844 | 0.638 | 0.486 | 0.154 | 0.855 | 0.472 | 0.395 | 0.16 | 0.214 |
| COR-L23 | 0.36 | 0.338 | 0.299 | 0.3 | 0.185 |  |  |  |  |  | 0.833 | 0.844 | 0.349 | 0.138 | 0.131 | 0.616 | 0.532 | 0.302 | 0.193 | 0.131 |
| COR-L 105 | 0.658 | 0.654 | 0.718 | 0.675 | 0.447 |  |  |  |  |  | 1.25 | 0.808 | 0.67 | 0.932 | 0.296 | 0.856 | 0.906 | 0.538 | 0.55 | 0.261 |
| Calu-6 | 0.523 | 0.546 | 0.482 | 0.543 | 0.253 |  |  |  |  |  | 0.941 | 0.829 | 0.579 | 0.172 | 0.101 | 0.842 | 0.689 | 0.506 | 0.276 | 0.164 |
| ChaGo-K-1 | 0.381 | 0.403 | 0.433 | 0.442 | 0.378 | 0.976 | 0.909 | 0.758 | 0.478 | 0.698 | 0.998 | 0.875 | 0.747 | 0.531 | 0.258 | 1.16 | 1.26 | 0.788 | 0.398 | 0.433 |
| EBC-1 | 0.684 | 0.701 | 0.595 | 0.706 | 0.579 |  |  |  |  |  | 0.0859 | 0.103 | 0.104 | 0.105 | 0.0891 | 0.19 | 0.204 | 0.208 | 0.209 | 0.177 |
| EKVX | 0.931 | 0.901 | 0.983 |  | 0.73 | 0.778 | 0.687 | 0.763 |  | 0.45 | 0.974 | 0.975 | 0.714 | 0.0943 | 0.13 | 1.01 | 0.993 |  | 1.07 | 0.246 |
| EMC-BAC-2 | 0.452 | 0.476 | 0.383 | 0.343 | 0.324 | 1.06 | 1.04 | 0.864 | 0.919 | 0.566 | 1.08 | 1 | 0.594 | 0.513 | 0.302 | 0.869 | 0.677 | 0.586 | 0.415 | 0.27 |
| EPLC-272H | 0.712 | 0.871 | 0.785 | 0.74 | 0.493 | 0.208 | 0.25 | 0.215 |  | 0.259 | 0.761 | 0.61 | 0.512 | 0.269 | 0.0781 | 1.04 | 0.787 | 0.67 | 0.822 | 0.225 |
| H3255 | 0.558 | 0.543 | 0.578 | 0.531 | 0.497 | 0.967 | 0.82 | 0.943 | 0.834 | 0.794 | 0.836 | 1.02 | 0.785 | 0.433 | 0.283 | 0.781 | 0.885 | 0.555 | 0.338 | 0.285 |
| HARA | 0.82 | 0.67 | 0.793 | 0.876 | 0.556 | 0.318 | 0.234 | 0.361 | 0.202 | 0.294 | 1.07 | 0.866 | 0.568 | 0.159 | 0.125 | 1.05 | 0.921 | 0.53 | 0.158 | 0.208 |
| HCC-15 | 0.607 | 0.721 | 0.625 | 0.693 | 0.538 | 1.24 | 1.43 | 1.22 | 1.15 | 1.23 | 1.03 | 0.891 | 0.636 | 0.178 | 0.152 | 0.872 | 0.83 | 0.486 | 0.274 | 0.119 |
| HCC-44 | 0.966 | 1.04 | 1.03 | 1 | 1.01 | 1.02 | 1.06 | 0.952 | 0.963 | 0.967 |  |  |  |  |  | 0.893 | 0.785 | 0.361 | 0.169 | 0.169 |
